Assays:
HiBit-BRM fusion protein = target: T1, HiBit-BRM fusion protein (Homo sapiens, UniProt P51531); experiment: HiBiT-BRM cell-based degradation assay (Nano-Glo HiBiT Lytic Detection); conditions: stable HeLa cell line expressing HiBiT-BRM, 24 h incubation; for BRM HiBit Degradation Maximum (%): top dose 30 μM; for DC50: read-out: BRM HiBit Degradation IC50
T1 construct: expressed in transfected cells
Method in brief: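 Luminescence from reconstituted NanoBiT luciferase in lysed HeLa HiBiT-BRM cells served as the measure of remaining BRM after 24 h treatment. Compounds were tested from 30 μM final downward in 3-fold steps. DMSO and 2 μM of a standard BRM/BRG1 degrader defined the scale limits.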

[1] = target: T2, HiBit-BRG1 fusion protein (Homo sapiens, UniProt P51532); experiment: HiBiT-BRG1 cell-based degradation assay (Nano-Glo HiBiT Lytic Detection); conditions: stable HeLa cell line expressing HiBit-BRG1 and LgBit, 24 h incubation; for Dmax: top dose 30 μM, read-out: BRG1 HiBit Degradation Maximum (%); for DC50: read-out: BRMG1 HiBit Degradation IC50
T2 construct: expressed in transfected cells
Method in brief: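 HeLa cells stably expressing HiBiT-BRG1 and LgBiT treated 24 h with 10-point 3-fold dilutions (top 30 μM, duplicate). Luminescence read after Nano-Glo HiBiT lytic reagent; % degradation relative to DMSO (high control) and 2 μM reference BRM/BRG1 degrader (low control).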

T1 sequence (P51531 whole entry, the tested form may be a part): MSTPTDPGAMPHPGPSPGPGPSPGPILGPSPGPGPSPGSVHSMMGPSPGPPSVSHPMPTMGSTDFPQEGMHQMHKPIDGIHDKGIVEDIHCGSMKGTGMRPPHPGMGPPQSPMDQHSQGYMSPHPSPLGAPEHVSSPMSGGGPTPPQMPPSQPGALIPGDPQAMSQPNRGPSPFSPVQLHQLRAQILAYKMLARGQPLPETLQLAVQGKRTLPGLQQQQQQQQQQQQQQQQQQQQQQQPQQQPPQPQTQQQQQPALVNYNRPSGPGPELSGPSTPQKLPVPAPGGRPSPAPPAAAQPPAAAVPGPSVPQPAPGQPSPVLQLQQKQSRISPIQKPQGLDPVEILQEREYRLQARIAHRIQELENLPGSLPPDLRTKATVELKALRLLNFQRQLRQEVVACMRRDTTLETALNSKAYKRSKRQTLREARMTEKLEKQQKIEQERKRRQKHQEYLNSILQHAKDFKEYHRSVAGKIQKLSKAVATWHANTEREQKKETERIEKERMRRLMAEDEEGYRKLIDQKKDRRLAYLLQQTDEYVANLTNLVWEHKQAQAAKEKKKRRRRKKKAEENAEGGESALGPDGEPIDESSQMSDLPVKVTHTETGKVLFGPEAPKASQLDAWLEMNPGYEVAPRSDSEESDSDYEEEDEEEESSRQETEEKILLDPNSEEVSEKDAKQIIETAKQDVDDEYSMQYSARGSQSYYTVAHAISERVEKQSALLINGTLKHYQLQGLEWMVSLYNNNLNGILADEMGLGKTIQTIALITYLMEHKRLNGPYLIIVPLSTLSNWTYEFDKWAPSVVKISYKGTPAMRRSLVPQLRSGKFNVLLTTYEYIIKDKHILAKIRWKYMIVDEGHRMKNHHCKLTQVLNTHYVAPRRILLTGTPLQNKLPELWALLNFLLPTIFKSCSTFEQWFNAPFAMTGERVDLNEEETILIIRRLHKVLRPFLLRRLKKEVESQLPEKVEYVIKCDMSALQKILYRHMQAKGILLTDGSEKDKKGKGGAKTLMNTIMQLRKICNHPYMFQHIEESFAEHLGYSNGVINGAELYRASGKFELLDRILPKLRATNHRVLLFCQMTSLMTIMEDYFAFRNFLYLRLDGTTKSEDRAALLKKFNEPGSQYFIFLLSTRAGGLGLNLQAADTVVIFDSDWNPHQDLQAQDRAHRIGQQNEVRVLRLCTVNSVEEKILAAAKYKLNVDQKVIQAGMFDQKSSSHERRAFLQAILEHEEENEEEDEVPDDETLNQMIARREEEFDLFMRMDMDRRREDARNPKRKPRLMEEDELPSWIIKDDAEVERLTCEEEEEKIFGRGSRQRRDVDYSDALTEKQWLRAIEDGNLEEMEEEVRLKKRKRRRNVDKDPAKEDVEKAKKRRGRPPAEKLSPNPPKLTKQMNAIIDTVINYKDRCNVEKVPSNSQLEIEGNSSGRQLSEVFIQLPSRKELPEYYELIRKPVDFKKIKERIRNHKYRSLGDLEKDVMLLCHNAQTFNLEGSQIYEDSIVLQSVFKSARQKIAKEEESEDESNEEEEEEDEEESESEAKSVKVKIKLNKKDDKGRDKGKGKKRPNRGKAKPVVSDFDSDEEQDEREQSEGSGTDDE
T2 sequence (P51532 whole entry, the tested form may be a part): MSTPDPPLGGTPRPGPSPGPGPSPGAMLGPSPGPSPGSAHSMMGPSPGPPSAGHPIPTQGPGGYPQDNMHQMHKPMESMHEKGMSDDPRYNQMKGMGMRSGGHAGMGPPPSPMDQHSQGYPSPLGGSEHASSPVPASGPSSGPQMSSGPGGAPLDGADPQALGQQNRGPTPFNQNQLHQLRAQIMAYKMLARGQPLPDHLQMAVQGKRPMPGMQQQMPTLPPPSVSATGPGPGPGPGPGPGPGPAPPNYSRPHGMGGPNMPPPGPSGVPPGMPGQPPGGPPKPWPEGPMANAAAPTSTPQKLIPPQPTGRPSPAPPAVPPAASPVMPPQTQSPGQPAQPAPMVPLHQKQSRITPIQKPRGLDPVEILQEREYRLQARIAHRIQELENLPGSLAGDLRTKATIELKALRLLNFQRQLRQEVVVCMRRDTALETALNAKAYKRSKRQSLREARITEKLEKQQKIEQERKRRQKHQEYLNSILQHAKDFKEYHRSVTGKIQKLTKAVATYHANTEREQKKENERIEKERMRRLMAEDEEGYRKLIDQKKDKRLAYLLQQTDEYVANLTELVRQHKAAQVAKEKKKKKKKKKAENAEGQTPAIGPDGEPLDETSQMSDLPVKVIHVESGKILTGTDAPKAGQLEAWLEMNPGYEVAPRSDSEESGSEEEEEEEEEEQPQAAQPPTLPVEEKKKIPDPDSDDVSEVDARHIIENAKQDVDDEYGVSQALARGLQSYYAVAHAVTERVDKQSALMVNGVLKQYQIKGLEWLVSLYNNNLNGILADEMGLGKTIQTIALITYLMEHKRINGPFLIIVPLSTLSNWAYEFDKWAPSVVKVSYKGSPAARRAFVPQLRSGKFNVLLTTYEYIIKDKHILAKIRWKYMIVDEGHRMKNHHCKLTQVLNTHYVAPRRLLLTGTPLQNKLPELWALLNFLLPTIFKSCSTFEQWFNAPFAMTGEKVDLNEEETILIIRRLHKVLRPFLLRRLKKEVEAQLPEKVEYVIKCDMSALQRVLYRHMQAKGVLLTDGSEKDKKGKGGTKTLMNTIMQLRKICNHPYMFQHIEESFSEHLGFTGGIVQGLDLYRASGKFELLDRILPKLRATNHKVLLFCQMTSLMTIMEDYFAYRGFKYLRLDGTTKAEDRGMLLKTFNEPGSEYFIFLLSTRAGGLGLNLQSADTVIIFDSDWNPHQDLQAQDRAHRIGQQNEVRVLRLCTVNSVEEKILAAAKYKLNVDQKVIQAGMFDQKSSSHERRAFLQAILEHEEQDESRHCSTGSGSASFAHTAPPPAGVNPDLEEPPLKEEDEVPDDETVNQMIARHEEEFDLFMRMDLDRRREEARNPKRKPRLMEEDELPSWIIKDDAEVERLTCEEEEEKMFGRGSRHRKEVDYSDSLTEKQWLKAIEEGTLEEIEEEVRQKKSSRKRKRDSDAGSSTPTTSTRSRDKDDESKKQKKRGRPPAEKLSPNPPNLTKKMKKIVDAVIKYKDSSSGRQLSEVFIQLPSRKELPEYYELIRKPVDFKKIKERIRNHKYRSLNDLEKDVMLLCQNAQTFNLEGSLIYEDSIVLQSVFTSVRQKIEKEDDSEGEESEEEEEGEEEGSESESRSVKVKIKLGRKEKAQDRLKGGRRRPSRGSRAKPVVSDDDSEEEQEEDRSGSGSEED

| DC50 (HiBit-BRM fusion protein) | Dmax [1] | DC50 [1] | Structure (SMILES) | BRM HiBit Degradation Maximum (%) (HiBit-BRM fusion protein) |
| --- | --- | --- | --- | --- |
| ≥ 1 µM | < 50% | ≥ 1 µM | Cc1ncsc1-c1ccc([C@H](C)NC(=O)[C@@H]2C[C@@H](O)CN2C(=O)[C@@H](c2cc(C3CCN(C(=O)[C@@H]4CCc5sc6nnc(-c7ccccc7O)cc6c5C4)CC3)no2)C(C)C)cc1 [Compound 48, (2S,4R)-4-hydroxy-1-((R)-2-(3-(1-((R)-3-(2-hydroxyphenyl)-5,6,7,8-tetrahydrobenzo[4,5]thieno[2,3-c]pyridazine-6-carbonyl)piperidin-4-yl)isoxazol-5-yl)-3-methylbutanoyl)-N-((S)-1-(4-(4-methylthiazol-5-yl)phenyl)ethyl)pyrrolidine-2-carboxamide] | C (“C” indicates maximum degradation < 50%) |
| ≥ 0.01 µM | ≥ 50% | ≥ 0.1 µM | Cc1ncsc1-c1ccc([C@H](C)NC(=O)[C@@H]2C[C@@H](O)CN2C(=O)[C@@H](c2cc(N3C[C@H]4C[C@@H]3CN4C(=O)[C@H]3CCc4sc5nnc(-c6ccccc6O)cc5c4C3)no2)C(C)C)cc1 [Compound 41, (2S,4R)-4-hydroxy-1-((R)-2-(3-((1R,4R)-5-((S)-3-(2-hydroxyphenyl)-5,6,7,8-tetrahydrobenzo[4,5]thieno[2,3-c]pyridazine-6-carbonyl)-2,5-diazabicyclo[2.2.1]heptan-2-yl)isoxazol-5-yl)-3-methylbutanoyl)-N—((S)-1-(4-(4-methylthiazol-5-yl)phenyl)ethyl)pyrrolidine-2-carboxamide] | A (“A” indicates maximum degradation ≥ 75%) |
| ≥ 0.1 µM | < 50% | ≥ 1 µM | Cc1ncsc1-c1ccc(CNC(=O)[C@@H]2C[C@@H](O)CN2C(=O)[C@@H](NC(=O)CCCCC(=O)N2CCC(c3cc4nnc(-c5ccccc5O)cc4s3)CC2)C(C)(C)C)cc1 [Compound 84, (2S,4R)-4-hydroxy-1-((S)-2-(6-(4-(3-(2-hydroxyphenyl)thieno[3,2-c]pyridazin-6-yl)piperidin-1-yl)-6-oxohexanamido)-3,3-dimethylbutanoyl)-N-(4-(4-methylthiazol-5-yl)benzyl)pyrrolidine-2-carboxamide] | C (“C” indicates maximum degradation < 50%) |
| < 0.01 µM | ≥ 75% | ≥ 0.01 µM | Cc1ncsc1-c1ccc([C@H](C)NC(=O)[C@@H]2C[C@@H](O)CN2C(=O)[C@@H](c2cc(OCCN3CCN(c4cc5nnc(-c6ccccc6O)cc5s4)CC3)no2)C(C)C)cc1 [Compound 49, (2S,4R)-4-hydroxy-1-((R)-2-(3-(2-(4-(3-(2-hydroxyphenyl)thieno[3,2-c]pyridazin-6-yl)piperazin-1-yl)ethoxy)isoxazol-5-yl)-3-methylbutanoyl)-N-((S)-1-(4-(4-methylthiazol-5-yl)phenyl)ethyl)pyrrolidine-2-carboxamide] | A (“A” indicates maximum degradation ≥ 75%) |
| ≥ 1 µM | < 50% | ≥ 1 µM | Cc1ncsc1-c1ccc([C@H](C)NC(=O)[C@@H]2C[C@@H](O)CN2C(=O)[C@@H](c2cc(OCCN3CCc4sc5nnc(-c6ccccc6O)cc5c4C3)no2)C(C)C)cc1 [Compound 109, (2S,4R)-4-hydroxy-1-((R)-2-(3-(2-(3-(2-hydroxyphenyl)-7,8-dihydropyrido[3′,4′:4,5]thieno[2,3-c]pyridazin-6(5H)-yl)ethoxy)isoxazol-5-yl)-3-methylbutanoyl)-N-((S)-1-(4-(4-methylthiazol-5-yl)phenyl)ethyl)pyrrolidine-2-carboxamide] | C (“C” indicates maximum degradation < 50%) |
| ≥ 0.01 µM | < 50% | ≥ 1 µM | Cc1ncsc1-c1ccc([C@H](C)NC(=O)[C@@H]2C[C@@H](O)CN2C(=O)[C@@H](c2cc(OCCN3CC(Cc4sc5nnc(-c6ccccc6O)cc5c4C)C3)no2)C(C)C)cc1 [Compound 16] | A (“A” indicates maximum degradation ≥ 75%) |
| ≥ 1 µM | < 50% | ≥ 1 µM | Cc1ncsc1-c1ccc([C@H](C)NC(=O)[C@@H]2C[C@@H](O)CN2C(=O)[C@@H](c2cc(N3CCN(C(=O)[C@@H]4CCc5sc6nnc(-c7ccccc7O)cc6c5C4)CC3)no2)C(C)C)cc1 (single isomer, unassigned) [Compound 53] | C (“C” indicates maximum degradation < 50%) |
| ≥ 1 µM | < 50% | ≥ 1 µM | Cc1ncsc1-c1ccc(CNC(=O)[C@@H]2C[C@@H](O)CN2C(=O)[C@@H](NC(=O)C2(F)CC2)C(C)(C)C)c(OCCN2CCC(c3cc4nnc(-c5ccccc5O)cc4s3)CC2)c1 [Compound 77, (2S,4R)-1-((S)-2-(1-fluorocyclopropane-1-carboxamido)-3,3-dimethylbutanoyl)-4-hydroxy-N-(2-(2-(4-(3-(2-hydroxyphenyl)thieno[3,2-c]pyridazin-6-yl)piperidin-1-yl)ethoxy)-4-(4-methylthiazol-5-yl)benzyl)pyrrolidine-2-carboxamide] | C (“C” indicates maximum degradation < 50%) |
| ≥ 0.01 µM | < 50% | ≥ 1 µM | Cc1ncsc1-c1ccc([C@H](C)NC(=O)[C@@H]2C[C@@H](O)CN2C(=O)[C@@H](c2cc(N3CCC(CN4CC(c5cc6cc(-c7ccccc7O)nnc6s5)C4)CC3)no2)C(C)C)cc1 [Compound 7] | A (“A” indicates maximum degradation ≥ 75%) |
| ≥ 1 µM | < 50% | ≥ 1 µM | Cc1ncsc1-c1ccc(CNC(=O)[C@@H]2C[C@@H](O)CN2C(=O)[C@@H](NC(=O)CCN2CCC(c3cc4cc(-c5ccccc5O)nnc4s3)CC2)C(C)(C)C)cc1 [Compound 24] | C (“C” indicates maximum degradation < 50%) |
| < 0.01 µM | < 50% | ≥ 1 µM | Cc1ncsc1-c1ccc([C@H](C)NC(=O)[C@@H]2C[C@@H](O)CN2C(=O)[C@@H](c2cc(OCCCN3CCC(c4sc5nnc(-c6ccccc6O)cc5c4C)CC3)no2)C(C)C)cc1 [Compound 95, (2S,4R)-4-hydroxy-1-((R)-2-(3-(3-(4-(3-(2-hydroxyphenyl)-5-methylthieno[2,3-c]pyridazin-6-yl)piperidin-1-yl)propoxy)isoxazol-5-yl)-3-methylbutanoyl)-N-((S)-1-(4-(4-methylthiazol-5-yl)phenyl)ethyl)pyrrolidine-2-carboxamide] | A (“A” indicates maximum degradation ≥ 75%) |

| Structure (SMILES) | DC50 (HiBit-BRM fusion protein) | Dmax [1] | DC50 [1] | BRM HiBit Degradation Maximum (%) (HiBit-BRM fusion protein) |
| --- | --- | --- | --- | --- |
| Cc1ncsc1-c1ccc([C@H](C)NC(=O)[C@@H]2C[C@@H](O)CN2C(=O)[C@@H](c2cc(OCCN3C[C@H]4C[C@@H](C3)[C@@H]4c3sc4nnc(-c5ccccc5O)cc4c3C)no2)C(C)C)cc1 [Compound 63, (2S,4R)-4-hydroxy-1-((R)-2-(3-(2-((1R,5S,6R)-6-(3-(2-hydroxyphenyl)-5-methylthieno[2,3-c]pyridazin-6-yl)-3-azabicyclo[3.1.1]heptan-3-yl)ethoxy)isoxazol-5-yl)-3-methylbutanoyl)-N-((S)-1-(4-(4-methylthiazol-5-yl)phenyl)ethyl)pyrrolidine-2-carboxamide] | ≥ 0.01 µM | < 50% | ≥ 1 µM | A (“A” indicates maximum degradation ≥ 75%) |

From US20240376121A1, “COMPOUNDS AND USES THEREOF” (Foghorn Therapeutics Inc., priority 2021, published 2024)
